Data published in US12214009B2, “Compositions and methods for improving bruising and rejuvenating skin” (Alastin Skincare, Inc., priority 2019, dated 2025).

Tests used:
[1] = tested on: dermal and epidermal hyaluronic acid level; details: ex vivo human skin model; cited from earlier work
[2] = Penetration ability log Kow; format: physicochemical
Experimental: A water suspension of liposomes was prepared with 1.5% of hydrophilic molecule A or 300 ppm (0.03%) hydrophilic molecule B, and 27% Pro-Lipo™ Neo. […] Molecule B was a hexapeptide (hexapeptide-38) with a molecular weight of (870 g/mol) and a penetration ability log Kow of −1.13. A water solution with 1.5% A or 300 ppm B was used as a control (non-entrapped molecule).

[3] = tested on: macrophages (RAW-Difluo mLC3 autophagy reporter cells) phagocytosing human red blood cells; assay: Macrophage phagocytosis of red blood cells (heme absorbance); format: cell-based; details: FIG. 6; 24 h; peptide alone; tripeptide-1 2.9 ug/mL, hexapeptide-11 100 ug/mL, hexapeptide-12 2.9 ug/mL
Experimental: The assay was performed according to manufacturer's instructions (Cell BioLabs, Inc.). Macrophages used were RAW-Difluo mLC3 autophagy reporter cells. Human red blood cells (RBCs) were obtained from ZenBio (catalog number SER-10MLRBC). Briefly, 24 hours before the assay, macrophages were plated on 96-well plates. One plate was plated with 12,500 macrophages and a second plate with 25,000 macrophages. The day of the assay, human red blood cells (RBCs) were opsonized with human RBC antibody. As a negative control, sheep RBCs were opsonized with human RBC antibody. The media was then replaced with either peptide or no peptide. Blood was added to the plates at a 200:1 RBC to macrophage ratio. Phagocytosis was measured beginning at 2 hours after blood was added. The media and blood were removed from the wells of the plate. The plate was washed once with RBC lysis buffer to remove non-phagocytosed RBCs followed by two washes with PBS. Macrophage lysis buffer was then added to the plate and the lysed solution was transferred to a 96-well plate. The substrate solution to detect heme was added to the 96-well plate and absorbance was recorded at 1 minute, 5 minutes, 10, minutes, and 20 minutes. FIGS. 1B-1C show images of macrophage phagocytosis prior to red blood cell (RBC) washout (FIG. 1B) and after RBC washout (FIG. 1C). Arrows indicate macrophages with RBCs (hollow circles). […]

Question: Which results are given for `CCCCCCCC(=O)CCc1ccc(O)c(OC)c1` [Hydroxymethoxyphenyl decanone]?
Answer: stimulation of dermal hyaluronic acid level versus placebo [1]: 259%; stimulation of epidermal hyaluronic acid level versus placebo [1]: 198%

Question: Which “penetration ability log Kow” value [2] does the source give for `Cn1c(=O)c2c(ncn2C)n(C)c1=O` [Molecule A, caffeine] here?
Answer: Its value is −0.07.

Question: Which “phagocytosis relative to NT control” value [3] does the source give for hexapeptide-11 here?
Answer: The value was “decrease or no change”.

Question: Which “phagocytosis relative to NT control” value [3] does the source give for tripeptide-1 here?
Answer: Its value is “decrease or no change”.
